Data set [1] relates to cytochrome P450. Description: in vivo activity (inhibition of cytochrome P450 activity).
Data set [2] deals with cytochrome P450. Nature of the data set: in vitro inhibition of cytochrome P450 activity. In kind it is biochemical.

The record followed here is patent US20100028417A1, “USE OF SUBSTITUTED GLYCERIN DERIVATIVES FOR PRODUCING A PHARMACEUTICAL PREPARATION” (priority 2006, published 2010).

Regarding `C#CCCCCCCCCC(C)(C)C(=O)O` [2,2-dimethyl-11-dodecinyl acid], the “in vivo activity compared with 10-undecinyl acid” value in the data set with cytochrome P450 [1] was “far superior in vivo”. Moreover, in the data set on cytochrome P450 [2], the “inhibition of cytochrome P450 activity” value was “comparably high inhibition”. Regarding `C#CCCCCCCCCC(=O)O` [10-undecinyl acid], in the data set on cytochrome P450 [2], the “inhibition of cytochrome P450 activity” value is reported as “comparably high inhibition”.
